Results as given in patent US6833249B2, “Quick and sensitive method of quantifying mycolic acid to develop anti-microbial agents and a diagnostic kit thereof” (Council of Scientific and Industrial Research, priority 2002, dated 2004).

Tested on: mycolic acid biosynthesis
Test: spectrophotometric assay of mycolic acid (carbol fuchsin complex) from treated M. smegmatis cells
Format: cell-based, Mycobacterium smegmatis
Conditions: for production/synthesis of mycolic acid: Mycobacterium smegmatis treated with the substance, result in words; for absorbance at 495.89 nm: mycolic acid-carbol fuchsin complex in hexane, M. smegmatis grown 48 hrs at sub-lethal concentration (½ MIC): extract 312 μg/ml, thebaine 150 μg/ml, isoniazid 1 μg/ml, untreated control 1.4885
Description: Mycolic acids are branched, β-hydroxy fatty acids which occur in the cell wall of Corynebacterium, Nocardia and Mycobacterium. Their molecular size varies with the genus, i.e., from 30, 50, 80-carbon atoms in the order described above. Because of the correlation between genus and mycolic acid size, the test for this biochemical marker is done in the early stage of the identification of unknown actinomycetes. The method followed in this invention for the extraction of mycolic acid is according to Minniken et al. (1975). After proper growth of the bacteria, the culture is centrifuged at 5000 RPM for 5 minutes and lyophilized. Dry bacteria (100 mg) are mixed with methanol (5 ml), Toluene (5 ml) and concentrated sulphuric acid (0.2 ml) in a 20-ml screw cap tube (poly tetra fluoro ethylene lined). The contents of the tube are mixed thoroughly and methanolysis is allowed to proceed for 12-16 hours at 75° C. (stationary incubation). The reaction mixture is allowed to cool and mycolic acid is extracted by adding 1 ml of hexane. After vigorous mixing the mixture is allowed to settle and the upper hexane layer containing mycolic acid is collected. Samples of the hexane extract were spotted on TLC coated with Merck silica gel H (0.5 mm), along with standard mycolic acid and the chromatogram is developed in petroleum ether: diethyl ether (85:15).
By using this method the mycolic acid produced by the control was quantified as well as treated cells of M. smegmatis with different plant extracts and compounds. Some of the compounds are known to inhibit mycolic acid biosynthesis and others are plant extracts and unknown compounds. The compounds and the extracts were selected on the basis of loosening of acid fast stain in Mycobacterium smegmatis.
The culture of Mycobacterium smegmatis was frown in nutrient broth containing the sub-lethal concentration (½ MIC) of the compounds/extracts for 48 hrs. The cells were harvested by centrifugation and the pellets were lyophilized. Equal amount of the cells (100 mg) were taken both of control and treated cells and kept for methanolysis overnight as described in Example 1. The extracted hexane layer was allowed to dry and a common stock (5 mg/ml) was used to run a TLC plate to determine how much the inhibition of mycolic acid by calculation the amount of produced mycolic acid by a densitometer.
Compounds, which were showing loosening of acid fast staining, were also tested for spectrophotometric assay. The strain of Mycobacterium smegmatis giving 100% acid fast staining was grown for 48 hours in 50 ml culture media. As described earlier treatment of different compounds were given at sub-lethal concentrations in replicates were also grown for 48 hours. […]
The details of the treatments and the absorbance by different treatments are described in Table 2.

SMILES | production/synthesis of mycolic acid | absorbance at 495.89 nm
NNC(=O)c1ccncc1 [Isoniazid] | does not allow the production of mycolic acid | 0
COC1=CC=C2[C@H]3Cc4ccc(OC)c5c4[C@@]2(CCN3C)[C@H]1O5 [Thebaine] | do not allow the synthesis of mycolic acid | 0
